Results as given in US10092575B2, “Substituted thiophene- and furan-fused azolopyrimidine-5-(6H)-one compounds” (DART NEUROSCIENCE (CAYMAN) LTD., priority 2012, dated 2018).
pEC50: −log10 of the molar value.

Molecular target: human PDE1b enzyme (Homo sapiens (Human), UniProt Q01064)
Experiment: PDE1b inhibitory assay (IMAP TR-FRET)
Settings: for PDE1b (pEC50): negative log of half-maximal molar inhibitory concentration, 200 nM FAM-cAMP, reported as ranges
Experimental: PDE1b inhibition was determined by an IMAP TR-FRET assay. The IMAP TR-FRET PDE assay was optimized for concentration of enzyme, Calmodulin, cAMP or cGMP substrate, DMSO tolerance, and incubation time.
After a brief centrifugation, the plates were incubated for 30 minutes at room temperature. The assay was terminated by adding 5 μL IMAP binding reagent/Tb complex (Molecular Devices, Sunnyvale, Calif.) to each well.
Plates were incubated 1 hour at room temperature and read on a Viewlux multimode plate reader (Perkin Elmer). The instrument was set to excite using the DUG11 filter and measure using 490/10 nm and 520/10 nm filters. Ratios of acceptor and donor were then calculated.
For EC50 calculations, the values of % efficacy versus a series of compound concentrations were then plotted using non-linear regression analysis of sigmoidal dose-response curves generated with the equation Y=B+(T−B)/1+10((Log EC50−X)×Hill Slope), where Y=percent activity, B=minimum percent efficacy, T=maximum percent efficacy, X=logarithm of compound and Hill Slope=slope factor or Hill coefficient. The EC50 value was determined by the concentration causing a half-maximal percent efficacy.

| Compound | PDE1b (pEC50) | pEC50 |
| --- | --- | --- |
| COc1ccc(Cn2c(=O)n3ncnc3c3c(C)c(CN4CC5CCC(C4)O5)sc32)cc1 [Example 67, 8-(8-Oxa-3-azabicyclo[3.2.1]octan-3-ylmethyl)-6-(4-methoxybenzyl)-9-methylthieno[3,2-e][1,2,4]triazolo[1,5-c]pyrimidin-5(6H)-one] | >7 |  |
| CCC1CN(Cc2sc3c(c2C)c2ncnn2c(=O)n3Cc2ccc(OC)cc2)CCO1 (stereo not shown) [Example 68, 8-((2-Ethylmorpholino)methyl)-6-(4-methoxybenzyl)-9-methylthieno[3,2-e][1,2,4]triazolo[1,5-c]pyrimidin-5(6H)-one] | >7 |  |
| COc1ccc(Cn2c(=O)n3ncnc3c3c(C)c(CN4CCOC(C)(C)C4)sc32)cc1 [Example 69, 8-((2,2-Dimethylmorpholino)methyl)-6-(4-methoxybenzyl)-9-methylthieno[3,2-e][1,2,4]triazolo[1,5-c]pyrimidin-5(6H)-one] | >7 |  |
| COc1ccc(Cn2c(=O)n3ncnc3c3c(C)c(CN4CCOC(C)C4)sc32)cc1 (stereo not shown) [Example 70, 6-(4-Methoxybenzyl)-9-methyl-8-((2-methylmorpholino)methyl)thieno[3,2-e][1,2,4]triazolo[1,5-c]pyrimidin-5(6H)-one] | >7 |  |
| COc1ccc(Cn2c(=O)n3ncnc3c3c(C)c(CN4CCOCC4C)sc32)cc1 (stereo not shown) [Example 71, 6-(4-Methoxybenzyl)-9-methyl-8-((3-methylmorpholino)methyl)thieno[3,2-e][1,2,4]triazolo[1,5-c]pyrimidin-5(6H)-one] | >7 |  |
| COc1ccc(Cn2c(=O)n3ncnc3c3c(C)c(CN4C[C@@H](C)N[C@@H](C)C4)sc32)cc1 [Example 72, 8-(((3R,5S)-3,5-Dimethylpiperazin-1-yl)methyl)-6-(4-methoxybenzyl)-9-methylthieno[3,2-e][1,2,4]triazolo[1,5-c]pyrimidin-5(6H)-one] |  | 6.00 to 7.00 |
| COc1ccc(Cn2c(=O)n3ncnc3c3c(C)c(CN4CCN(C)C(C)C4)sc32)cc1 (stereo not shown) [Example 73, 8-((3,4-Dimethylpiperazin-1-yl)methyl)-6-(4-methoxybenzyl)-9-methylthieno[3,2-e][1,2,4]triazolo[1,5-c]pyrimidin-5(6H)-one] | >7 |  |
| COc1ccc(Cn2c(=O)n3ncnc3c3c(C)c(CN4CCN(C)C(C)(C)C4)sc32)cc1 [Example 74, 6-(4-Methoxybenzyl)-9-methyl-8-((3,3,4-trimethylpiperazin-1-yl)methyl)thieno[3,2-e][1,2,4]triazolo[1,5-c]pyrimidin-5(6H)-one] | >7 |  |
| COc1ccc(Cn2c(=O)n3ncnc3c3c(C)c(CN4CCN5CCC[C@H]5C4)sc32)cc1 [Example 75, (S)-8-((Hexahydropyrrolo[1,2-a]pyrazin-2(1H)-yl)methyl)-6-(4-methoxybenzyl)-9-methylthieno[3,2-e][1,2,4]triazolo[1,5-c]pyrimidin-5(6H)-one] | >7 |  |
| COc1ccc(Cn2c(=O)n3ncnc3c3c(C)c(Br)sc32)cc1 [Example 76, 8-Bromo-6-(4-methoxybenzyl)-9-methylthieno[3,2-e][1,2,4]triazolo[1,5-c]pyrimidin-5(6H)-one] |  | 6.00 to 7.00 |
| COc1ccc(Cn2c(=O)n3ncnc3c3c(C)c(CO)sc32)cc1 [Example 77, 8-(Hydroxymethyl)-6-(4-methoxybenzyl)-9-methylthieno[3,2-e][1,2,4]triazolo[1,5-c]pyrimidin-5(6H)-one] |  | 6.00 to 7.00 |
| COc1ccc(Cn2c(=O)n3ncnc3c3c(CN4C[C@@H](C)O[C@@H](C)C4)csc32)cc1 [Example 78, 9-(((2S,6R)-2,6-Dimethylmorpholino)methyl)-6-(4-methoxybenzyl)thieno[3,2-e][1,2,4]triazolo[1,5-c]pyrimidin-5(6H)-one] |  | 6.00 to 7.00 |
| Cc1oc2c(c1C)c1ncnn1c(=O)n2Cc1ccc(Cl)cc1 [Example 79, 6-(4-Chlorobenzyl)-8,9-dimethylfuro[3,2-e][1,2,4]triazolo[1,5-c]pyrimidin-5(6H)-one] |  | 6.00 to 7.00 |
| COc1ccc(Cn2c(=O)n3ncnc3c3c4c(sc32)CN(C(=O)OC(C)(C)C)CC4)cc1 [Example 80, tert-Butyl 6-(4-methoxybenzyl)-5-oxo-5,6,10,11-tetrahydropyrido[4′,3′:4,5]thieno[3,2-e][1,2,4]triazolo[1,5-c]pyrimidine-9(8H)-carboxylate] | >7 |  |
| O=c1n(Cc2ccccc2Cl)c2sc3c(c2c2ncnn12)CCCC3 [Example 81, 6-(2-Chlorobenzyl)-8,9,10,11-tetrahydrobenzo[4,5]thieno[3,2-e][1,2,4]triazolo[1,5-c]pyrimidin-5(6H)-one] |  | 5.00 to 6.00 |
| COc1ccc(Cn2c(=O)n3nccc3c3cc(CN4CCOCC4)sc32)cc1 [Example 82, 4-(4-Methoxybenzyl)-2-(morpholinomethyl)pyrazolo[1,5-c]thieno[3,2-e]pyrimidin-5(4H)-one] |  | 6.00 to 7.00 |
| CC1(C)Cc2c(sc3c2c2ncnn2c(=O)n3Cc2ccc(Cl)cc2)CO1 [Example 83, 6-(4-Chlorobenzyl)-10,10-dimethyl-6,8,10,11-tetrahydro-5H-pyrano[4′,3′:4,5]thieno[3,2-e][1,2,4]triazolo[1,5-c]pyrimidin-5-one] |  | 6.00 to 7.00 |

| Compound | PDE1b (pEC50) | pEC50 |
| --- | --- | --- |
| O=c1n(Cc2ccccc2)c2sc3c(c2c2ncnn12)CCCC3 [Example 84, 6-Benzyl-8,9,10,11-tetrahydrobenzo[4,5]thieno[3,2-e][1,2,4]triazolo[1,5-c]pyrimidin-5(6H)-one] |  | 6.00 to 7.00 |
| O=c1n(Cc2cccc(Cl)c2)c2sc3c(c2c2ncnn12)CCCC3 [Example 85, 6-(3-Chlorobenzyl)-8,9,10,11-tetrahydrobenzo[4,5]thieno[3,2-e][1,2,4]triazolo[1,5-c]pyrimidin-5(6H)-one] |  | 6.00 to 7.00 |
| O=c1n(Cc2ccc(-c3ccccc3)cc2)c2sc3c(c2c2ncnn12)CCCC3 [Example 86, 6-([1,1′-Biphenyl]-4-ylmethyl)-8,9,10,11-tetrahydrobenzo[4,5]thieno[3,2-e][1,2,4]triazolo[1,5-c]pyrimidin-5(6H)-one] |  | 5.00 to 6.00 |
| O=c1n(Cc2ccc(Cl)cc2)c2sc3c(c2c2ncnn12)CCOC3 [Example 87, 6-(4-Chlorobenzyl)-6,8,10,11-tetrahydro-5H-pyrano[4′,3′:4,5]thieno[3,2-e][1,2,4]triazolo[1,5-c]pyrimidin-5-one] |  | 6.00 to 7.00 |
| Cc1ccc(Cn2c(=O)n3ncnc3c3c4c(sc32)COCC4)cc1 [Example 88, 6-(4-Methylbenzyl)-6,8,10,11-tetrahydro-5H-pyrano[4′,3′:4,5]thieno[3,2-e][1,2,4]triazolo[1,5-c]pyrimidin-5-one] |  | 6.00 to 7.00 |
| O=c1n(Cc2ccc(C(F)(F)F)cc2)c2sc3c(c2c2ncnn12)CCOC3 [Example 89, 6-(4-(Trifluoromethyl)benzyl)-6,8,10,11-tetrahydro-5H-pyrano[4′,3′:4,5]thieno[3,2-e][1,2,4]triazolo[1,5-c]pyrimidin-5-one] |  | 5.00 to 6.00 |
| COc1ccc(Cn2c(=O)n3ncnc3c3c4c(sc32)COCC4)cc1 [Example 90, 6-(4-Methoxybenzyl)-6,8,10,11-tetrahydro-5H-pyrano[4′,3′:4,5]thieno[3,2-e][1,2,4]triazolo[1,5-c]pyrimidin-5-one] | >7 |  |
| O=c1n(Cc2ccc(Cl)c(Cl)c2)c2sc3c(c2c2ncnn12)CCOC3 [Example 91, 6-(3,4-Dichlorobenzyl)-6,8,10,11-tetrahydro-5H-pyrano[4′,3′:4,5]thieno[3,2-e][1,2,4]triazolo[1,5-c]pyrimidin-5-one] |  | 6.00 to 7.00 |
| O=c1n(Cc2ccc(F)cc2)c2sc3c(c2c2ncnn12)CCOC3 [Example 92, 6-(4-Fluorobenzyl)-6,8,10,11-tetrahydro-5H-pyrano[4′,3′:4,5]thieno[3,2-e][1,2,4]triazolo[1,5-c]pyrimidin-5-one] |  | 5.00 to 6.00 |
| O=c1n(Cc2ccc(Cl)c(F)c2)c2sc3c(c2c2ncnn12)CCOC3 [Example 93, 6-(4-Chloro-3-fluorobenzyl)-6,8,10,11-tetrahydro-5H-pyrano[4′,3′:4,5]thieno[3,2-e][1,2,4]triazolo[1,5-c]pyrimidin-5-one] |  | 6.00 to 7.00 |
| O=c1n(Cc2ccc(Cl)cc2F)c2sc3c(c2c2ncnn12)CCOC3 [Example 94, 6-(4-Chloro-2-fluorobenzyl)-6,8,10,11-tetrahydro-5H-pyrano[4′,3′:4,5]thieno[3,2-e][1,2,4]triazolo[1,5-c]pyrimidin-5-one] |  | 6.00 to 7.00 |
| COc1ccc(Cn2c(=O)n3ncnc3c3c4c(sc32)COCC4)cc1F [Example 95, 6-(3-Fluoro-4-methoxybenzyl)-6,8,10,11-tetrahydro-5H-pyrano[4′,3′:4,5]thieno[3,2-e][1,2,4]triazolo[1,5-c]pyrimidin-5-one] |  | 6.00 to 7.00 |
| O=c1n(Cc2ccc(OC(F)(F)F)cc2)c2sc3c(c2c2ncnn12)CCOC3 [Example 96, 6-(4-(Trifluoromethoxy)benzyl)-6,8,10,11-tetrahydro-5H-pyrano[4′,3′:4,5]thieno[3,2-e][1,2,4]triazolo[1,5-c]pyrimidin-5-one] |  | 5.00 to 6.00 |
| CCOc1ccc(Cn2c(=O)n3ncnc3c3c4c(sc32)COCC4)cc1 [Example 97, 6-(4-Ethoxybenzyl)-6,8,10,11-tetrahydro-5H-pyrano[4′,3′:4,5]thieno[3,2-e][1,2,4]triazolo[1,5-c]pyrimidin-5-one] |  | 5.00 to 6.00 |
| COc1c(F)cc(Cn2c(=O)n3ncnc3c3c4c(sc32)COCC4)cc1F [Example 98, 6-(3,5-Difluoro-4-methoxybenzyl)-6,8,10,11-tetrahydro-5H-pyrano[4′,3′:4,5]thieno[3,2-e][1,2,4]triazolo[1,5-c]pyrimidin-5-one] | <5 |  |
| O=c1n(Cc2ccc(Cl)cc2)c2sc3c(c2c2ncnn12)CCNC3 [Example 99, 6-(4-Chlorobenzyl)-8,9,10,11-tetrahydropyrido[4′,3′:4,5]thieno[3,2-e][1,2,4]triazolo[1,5-c]pyrimidin-5(6H)-one] |  | 5.00 to 6.00 |
| COc1ccc(Cn2c(=O)n3ncnc3c3c4c(sc32)NCCC4)cc1OC [Example 100, 6-(3,4-Dimethoxybenzyl)-8,9,10,11-tetrahydropyrido[3′,2′:4,5]thieno[3,2-e][1,2,4]triazolo[1,5-c]pyrimidin-5(6H)-one] |  | 5.00 to 6.00 |
